Read-outs that look alike come from different tables or passages of the source.
How the values were obtained:
Format in all cases: binding
[1] = target: T1, FBW7^ARG (RLFBW7) alone (Homo sapiens, UniProt Q969H0, R505L); assay: Counterscreen 1 ALPHAscreen with FBW7^ARG alone (CSRUN1/DCSRUN1); settings: dose-response counterscreen; for Emax: read-out: RLFBW7 ACT DCSRUN1 Averaged Max % Response
T1 construct: GST (TEV site and flexible linker) (N, cleaved yes); made in house; host or cells: SF9 insect cells (baculovirus)
T1 sequence (Q969H0 64-707 R505L): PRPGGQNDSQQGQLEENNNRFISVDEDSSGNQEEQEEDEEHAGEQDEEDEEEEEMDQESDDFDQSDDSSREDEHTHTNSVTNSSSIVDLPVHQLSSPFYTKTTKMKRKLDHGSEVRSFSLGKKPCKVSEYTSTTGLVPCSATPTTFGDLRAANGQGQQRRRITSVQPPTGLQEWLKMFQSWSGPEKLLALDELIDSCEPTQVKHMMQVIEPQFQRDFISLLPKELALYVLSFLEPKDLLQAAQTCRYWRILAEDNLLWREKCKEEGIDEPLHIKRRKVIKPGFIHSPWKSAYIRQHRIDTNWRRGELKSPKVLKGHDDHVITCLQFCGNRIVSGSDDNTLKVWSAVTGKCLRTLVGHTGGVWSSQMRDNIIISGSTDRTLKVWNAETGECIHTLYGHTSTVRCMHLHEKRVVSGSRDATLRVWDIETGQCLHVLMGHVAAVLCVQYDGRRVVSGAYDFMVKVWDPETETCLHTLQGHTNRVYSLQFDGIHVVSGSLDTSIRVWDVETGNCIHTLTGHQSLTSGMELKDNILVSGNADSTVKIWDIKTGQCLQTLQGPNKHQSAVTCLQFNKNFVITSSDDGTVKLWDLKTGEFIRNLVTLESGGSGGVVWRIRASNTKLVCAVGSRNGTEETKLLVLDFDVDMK
T1 sequence (P63208 2-163 partner): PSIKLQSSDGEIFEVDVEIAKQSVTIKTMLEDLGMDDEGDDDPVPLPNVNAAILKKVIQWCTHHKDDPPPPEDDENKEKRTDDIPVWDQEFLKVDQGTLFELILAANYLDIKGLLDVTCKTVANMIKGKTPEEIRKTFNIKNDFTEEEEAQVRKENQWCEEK
Procedure: (§1) Studies in 384-well format were performed using the ENVISION system. Reagent concentrations (see FIG. 6A), order of addition, pH (see FIG. 6B), and reducing agent were altered with the goal of enhancing the dynamic range between wt-FBW7 (the positive control) and FBW7^ARG (FIG. 6 and not shown). Wt-FBW7 produced a signal 100× greater with phosphorylated cyclin E degron peptide compared with unphosphorylated, which represents the assay's maximum range (FIG. 6C). […] This assay thus detects the residual affinity of the FBW7^ARG-substrate interaction, which, as predicted, is stronger than wt-FBW7 protein with unphosphorylated cyclin E peptide. Concurrent with this primary assay, counter ALPHAscreens were developed which omitted either FBW7 or peptide (to eliminate hits that are general ALPHAscreen agonists), or used an irrelevant phosphopeptide (to eliminate compounds that simply augment binding to phosphopeptides). […]
(§2) The 77 hits were subjected to a dose-response assay in which each compound was tested in triplicate in a 10 point 3-fold dilutional series, to a maximum concentration of approximately 87 μM. Three screens were performed, using FBW7^ARG+pCycE (DRUN), FBW7^ARG (DCSRUN1), or pCycE alone (DCSRUN2). See TABLES 2, 3, and 4, respectively, and FIG. 10A. All of the assays performed extremely well, and threshold of 10% activation (relative to WT-FBW7+pCycE) was set as positive. […] Many hits fell into shared structure cluster ID groups, reinforcing the idea that they function as specific agonists (see below and TABLE 5).

[2] = target: T2, FBW7^ARG+pCycE (Homo sapiens, UniProt Q969H0, R505L); assay: FBW7^ARG-cyclin E agonist ALPHAscreen (primary PRUN, confirmation CRUN1, dose-response DRUN); settings: for EC50 / Emax: DRUN dose-response; for Emax: relative to WT-FBW7+pCycE, read-out: FBW7 ACT Averaged Max % Response
T2 construct: GST (TEV site and flexible linker) (N, cleaved yes); made in house; host or cells: SF9 insect cells (baculovirus)
T2 sequence (Q969H0 64-707 R505L): as the sequence (Q969H0 64-707 R505L) above
T2 sequence (P63208 2-163 partner): as the sequence (P63208 2-163 partner) above
Text: FBW7^ARG refers to a class of loss-of-function mutations of the of FBW7 ubiquitin ligase that target a key phosphate-binding arginine residue in the FBW7 substrate-binding domain. These mutations are commonly found in human cancers and promote tumorigenesis by impairing the interactions between FBW7 and its substrates, such as cyclin E and Myc. Described herein is a high throughput screen (HTS) to identify agonists, such as small molecules, that augment FBW7^ARG-substrate binding. In an embodiment, the HTS is based on the Amplified Luminescent Proximity Homogenous Assay (ALPHAscreen) because it detects protein-protein interactions with a large dynamic range. ALPHAscreen is a bead-based proximity assay wherein donor beads contain a photosensitizer, phthalocyanine, and acceptor beads contain thioxene, anthracene and rubrenein in sufficient quantities to generate a chemiluminescence/fluorescence reaction (FIG. 4A). Upon excitation with excitation illumination, such as light having a wavelength of 680 nm, of the donor beads, phthalocyanine converts ambient oxygen to singlet oxygen, which can diffuse approximately 200 nm within its 4-microsecond half-life. If an acceptor bead is in close proximity to an excited donor bead, singlet oxygen transfers its energy to the acceptor, resulting in emitted light at a broad bandwidth of −520-620 nm. The HTS-compatible FBW7/cyclin E ALPHAscreen assay described herein uses streptavidin coupled donor beads and Ni-chelate acceptor beads. In this assay, biotinylated cyclin E phosphopeptide and the His-tagged FBW7 mutant protein have high affinity for the donor and acceptor beads, respectively (FIG. 4B). A small molecule that is able to bridge the binding sites of the peptide and the mutant protein (or induce a conformational change that increases affinity of the protein for the peptide) will bring the donor and acceptor beads in close proximity to each other, resulting in an ALPHA signal. As designed, this assay format is a very sensitive, non-radioactive, homogenous “mix-and-read” format that is HT compatible in 384 and 1536 well formats.
In the 384-well screening assay, 10 uL of acceptor beads with 25 nM of the FBW7^ARG (RLFBW7) are dispensed to test wells; acceptor beads with 25 nM of the wt-FBW7 protein (WTFBW7) are dispensed to control wells. Test compounds are then added by pintool transfer and the mixture is incubated for 30 minutes. An additional 10 uL of donor beads with 25 nM cyclin E phosphopeptide is then added to all wells and the plate is incubated for 4 hours before the ALPHA signal is measured.
In preparation for large-scale screening, the assay was miniaturized to a 1536-well format. The miniaturized screen performed outstandingly in all respects. The screen was enhanced with respect to several parameters and assayed its performance using mutant FBW7 and wt-FBW7, as well as non-specific assay agonists. […] For example, the following Z′-scores/FBW7 concentrations were obtained: 6.25 nM/Z′=0.62, 12.5 nm/Z′=0.85, 25.0 nM/Z′=0.84.
1. Add 2.5 uL of RLFBW7/cycE˜P/Ni beads: Final [25 nM/25 nM/10 ug/ml].
2. Add 2.5 uL of WTFBW7/cycE˜P/Ni beads: Final [25 nM/25 nM/10 ug/ml].
4. Add 2.5 uL of SA beads to all wells Final [10 ug/ml],
5. Add 30 nL of compounds,
6. Read ALPHAscreen on Envision
The large-scale FBW7 agonist ALPHAscreen was completed using FBW7^ARG and a phosphorylated cyclin E (pCycE) degron peptide. Wt-FBW7+pCycE-peptide was the “high control”, and Wt-FBW7+unphosph. CycE peptide was the “low control”. The screen was performed on the 645,000-compound Scripps Diversity Library using 1536-well format and drug concentrations of 26.1 μM. An algorithm aided hit identification based on the average percent activation for all compounds and their standard deviation.
A confirmation assay of all 853 compounds in triplicate using a single concentration (26.1 μM). […]

[3] = tested on: pCycE alone; assay: Counterscreen 2 ALPHAscreen with cyclin E phosphopeptide alone (CSRUN2/DCSRUN2); settings: for CyCEP ACT DCSRUN2 Averaged Max % Response: activation relative to WT-FBW7+pCycE, averaged maximum; for EC50: dose-response, triplicate, 10 point 3-fold dilutional series, read-out: CyCEP ACT DCSRUN2 Final EC50
Procedure: as §1, §2

[4] = raw curve fit, read-out: RLFBW7 ACT DCSRUN1 EC50 Curve Fit Raw
[5] = read-out: RLFBW7 ACT DCSRUN1 Final EC50
[6] = raw curve fit, read-out: FBW7 ACT EC50 Curve Fit Raw, Molar
[7] = triplicate, 10 point 3-fold dilution, max approx. 87 μM, read-out: FBW7 ACT Final EC50, Molar
[8] = confirmation assay, triplicate, single concentration 26.1 μM, read-out: FBW7 ACT CRUN1 Avg % Response and Stdev
[9] = primary screen, 1536-well, 26.1 μM, FBW7^ARG + pCycE degron peptide, high control wt-FBW7+pCycE, read-out: FBW7 ACT PRUN % Response

SMILES	EC50 [1, 4] [µM]	Emax [1] [%]	EC50 [1, 5] [µM]	EC50 [2, 6] [µM]	Emax [2] [%]	EC50 [2, 7] [µM]	activation at 26.1 µM [2, 8] [%]	activation at 26.1 µM [2, 9] [%]	CyCEP ACT DCSRUN2 Averaged Max % Response [3] [%]	EC50 [3] [µM]
O=C(NCCCN1CCc2ccccc2C1)Nc1ccc(Br)cc1 [SR-01000123578-1]	0.255	-0.0757	> 65.3	0.255	6.18	> 65.3	2.32 ± 0.39	3.06	0.28	> 65.3
O=C(c1ccco1)N1CCN(c2ncc(-c3ccccc3CO)n3ccnc23)CC1 [SR-01000381408-1]	0.229	0.83	> 65.3	20.3	18.1	> 65.3	1.92 ± 0.3	6.66	0.18	> 65.3
CC(C)c1ccc(Nc2nccn3c(-c4ccoc4)cnc23)cc1 [SR-01000376943-1]	13.9	-0.189	> 65.3	12.7	6.99	> 65.3	2.06 ± 0.33	2.3	1.39	> 65.3
CC1=C(C(=O)OCCc2ccccc2)C(c2ccc(Cl)cc2Cl)C2=C(CC(C)(C)CC2=O)N1 (stereo not shown) [SR-01000419178-1]	0.0785	3.8	> 45.8	16.4	9.01	> 45.8	4.54 ± 0.53	2.09	0.09	> 45.8
CCC(C)OC(=O)C1=C(C)NC2=C(C(=O)CC(c3ccc(Cl)cc3)C2)C1c1cccc(Cl)c1 (stereo not shown) [SR-01000422821-1]	24.1	4.29	> 45.8	16	9.85	> 45.8	6.44 ± 0.56	1.86	0.13	> 45.8
CCC(c1nnnn1CCC(C)C)N1CCN(C(=O)c2ccco2)CC1 (stereo not shown) [SR-01000340422-1]	2.3	0.87	> 65.3	24	6.45	> 65.3	2.97 ± 0.23	2.16	0.18	> 65.3
CCN(CC)c1ccc2cc(-c3nc(C)cs3)c(=O)oc2c1 [SR-01000312020-1]	11.6	6.67	> 65.3	8.2	13.9	> 65.3	5.16 ± 7.04	3.44	0.77	> 65.3
CCC(C)OC(=O)C1=C(C)NC2=C(C(=O)CC(c3ccccc3)C2)C1c1cccc2ccccc12 (stereo not shown) [SR-01000423185-1]	–	8.99	> 47.6	15.9	13	> 47.6	5.54 ± 0.29	2.18	11.24	> 47.6
